Assay results reported in US20240109865A1, “INDAZOLE COMPOUNDS AS KINASE INHIBITORS” (TYRA BIOSCIENCES, INC., priority 2020, published 2024).

Tests used:
[1] = biological target: FGFR3-BAIAP2L1 Ba/F3 cells (Homo sapiens, UniProt P22607); test: Ba/F3 cell viability assay (CellTiter-Glo 2.0), FGFR3-BAIAP2L1 Ba/F3; format: cell-based; settings: for Ba/F3 FGFR1/FGFR3 Selectivity: FGFR3 > FGFR1 selectivity ratio in Ba/F3 FGFR fusion cell based assays; for IC50: read-out: Ba/F3 Cells FGFR3 (IC50 nM), FGFR3-BAIAP2L1 Ba/F3 cells, 48 hours, Cell Titer Glo 2.0
Sequence of FGFR3-BAIAP2L1 Ba/F3 cells (P22607 23-806 limits assumed, change not shown): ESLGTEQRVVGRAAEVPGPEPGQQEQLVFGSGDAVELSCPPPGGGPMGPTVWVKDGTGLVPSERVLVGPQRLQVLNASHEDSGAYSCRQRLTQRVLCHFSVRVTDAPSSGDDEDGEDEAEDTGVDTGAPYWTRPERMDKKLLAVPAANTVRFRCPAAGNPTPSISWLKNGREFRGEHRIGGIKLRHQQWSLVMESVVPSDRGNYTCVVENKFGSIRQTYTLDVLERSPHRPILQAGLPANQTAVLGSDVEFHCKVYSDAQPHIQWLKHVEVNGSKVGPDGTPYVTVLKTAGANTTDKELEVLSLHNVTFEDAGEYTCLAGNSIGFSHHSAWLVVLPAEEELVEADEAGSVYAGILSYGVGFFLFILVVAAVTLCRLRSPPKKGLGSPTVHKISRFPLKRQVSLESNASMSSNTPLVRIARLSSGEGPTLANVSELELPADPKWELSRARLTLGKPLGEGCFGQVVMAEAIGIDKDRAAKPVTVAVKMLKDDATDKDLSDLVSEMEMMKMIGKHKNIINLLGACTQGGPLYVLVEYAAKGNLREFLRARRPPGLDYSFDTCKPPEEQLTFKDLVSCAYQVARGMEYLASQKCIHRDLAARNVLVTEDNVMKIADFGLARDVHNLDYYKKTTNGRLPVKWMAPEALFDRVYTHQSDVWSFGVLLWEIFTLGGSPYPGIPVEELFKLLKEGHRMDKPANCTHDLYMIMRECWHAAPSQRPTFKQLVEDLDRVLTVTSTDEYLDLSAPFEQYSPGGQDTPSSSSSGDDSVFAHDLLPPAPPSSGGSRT
Outline: (§1)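 Viability read as ATP luminescence (CellTiter-Glo 2.0) after 48 h compound exposure, normalized to DMSO-treated cells and fitted with a 4-parameter curve for IC50. Cells: Ba/F3 dependent on FGFR1-BCR or FGFR3-BAIAP2L1 fusion kinase; top dose 30 μM, 10-fold steps, 9 doses in triplicate.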

[2] = biological target: FGFR1-BCR Ba/F3 cells (Homo sapiens, UniProt P11362); test: Ba/F3 cell viability assay (CellTiter-Glo 2.0), FGFR1-BCR Ba/F3; format: cell-based; settings: read-out: Ba/F3 Cells FGFR1 (IC50 nM), 48 hours, Cell Titer Glo 2.0
Sequence of FGFR1-BCR Ba/F3 cells (P11362 22-822 limits assumed, change not shown): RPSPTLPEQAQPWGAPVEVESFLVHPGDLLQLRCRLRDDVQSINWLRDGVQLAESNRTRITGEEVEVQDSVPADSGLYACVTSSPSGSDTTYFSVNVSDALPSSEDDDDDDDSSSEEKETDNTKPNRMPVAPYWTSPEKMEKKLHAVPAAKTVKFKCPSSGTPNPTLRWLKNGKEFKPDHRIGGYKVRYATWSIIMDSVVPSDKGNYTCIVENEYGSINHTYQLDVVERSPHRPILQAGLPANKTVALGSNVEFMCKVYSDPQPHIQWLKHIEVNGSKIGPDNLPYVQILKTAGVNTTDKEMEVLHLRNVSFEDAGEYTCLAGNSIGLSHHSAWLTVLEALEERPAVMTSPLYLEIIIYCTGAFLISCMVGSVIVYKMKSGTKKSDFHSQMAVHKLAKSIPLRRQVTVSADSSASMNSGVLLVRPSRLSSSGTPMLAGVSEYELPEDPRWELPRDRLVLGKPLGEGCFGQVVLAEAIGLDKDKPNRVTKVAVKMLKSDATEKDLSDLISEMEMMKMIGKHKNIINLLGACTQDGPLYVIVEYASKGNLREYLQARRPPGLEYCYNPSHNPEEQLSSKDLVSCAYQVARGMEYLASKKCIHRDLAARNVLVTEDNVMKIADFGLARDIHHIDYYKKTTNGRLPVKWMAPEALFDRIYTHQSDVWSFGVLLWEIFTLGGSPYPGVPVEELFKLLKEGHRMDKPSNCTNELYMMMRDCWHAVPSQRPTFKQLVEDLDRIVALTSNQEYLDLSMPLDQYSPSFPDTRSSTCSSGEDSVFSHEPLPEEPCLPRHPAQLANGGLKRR
Outline: as §1

[3] = biological target: FGFR1 (Homo sapiens (Human), UniProt P11362); test: Kinase assay, binding constants (Kd), kinase-tagged T7 phage, qPCR
Sequence of FGFR1 (P11362 22-822): as the sequence (P11362 22-822 limits assumed, change not shown) above
Outline: (§2)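 Kinase-tagged T7 phage (grown in BL21-derived E. coli) competed with test compound for immobilized biotinylated ligand on streptavidin beads. Kds came from an 11-point 3-fold dilution series at 0.9% final DMSO. Bound kinase was eluted with non-biotinylated ligand and quantified by qPCR, with Hill slope fixed at −1.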

[4] = biological target: FGFR2 (Homo sapiens (Human), UniProt P21802); test: as above
Sequence of FGFR2 (P21802 22-821): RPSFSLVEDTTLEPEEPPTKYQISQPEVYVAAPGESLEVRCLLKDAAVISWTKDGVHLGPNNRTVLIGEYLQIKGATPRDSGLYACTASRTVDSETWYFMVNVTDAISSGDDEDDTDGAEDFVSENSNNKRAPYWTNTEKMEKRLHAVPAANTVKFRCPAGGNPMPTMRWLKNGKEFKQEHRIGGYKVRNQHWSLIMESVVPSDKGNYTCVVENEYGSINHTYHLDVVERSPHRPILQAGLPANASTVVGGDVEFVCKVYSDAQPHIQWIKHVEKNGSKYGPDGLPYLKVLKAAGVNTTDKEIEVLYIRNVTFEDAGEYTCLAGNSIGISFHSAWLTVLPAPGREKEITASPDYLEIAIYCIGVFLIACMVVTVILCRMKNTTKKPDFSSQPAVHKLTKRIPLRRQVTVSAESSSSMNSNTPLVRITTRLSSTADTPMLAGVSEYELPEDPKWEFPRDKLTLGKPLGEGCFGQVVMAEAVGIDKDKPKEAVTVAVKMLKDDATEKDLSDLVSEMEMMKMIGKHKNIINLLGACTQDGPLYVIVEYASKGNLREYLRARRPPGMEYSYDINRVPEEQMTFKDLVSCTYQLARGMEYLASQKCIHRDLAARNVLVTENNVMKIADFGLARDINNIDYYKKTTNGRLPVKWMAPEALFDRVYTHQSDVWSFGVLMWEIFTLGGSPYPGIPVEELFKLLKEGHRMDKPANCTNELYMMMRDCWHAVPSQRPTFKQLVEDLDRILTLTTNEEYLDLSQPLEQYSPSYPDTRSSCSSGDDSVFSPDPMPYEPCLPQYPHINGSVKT
Outline: as §2

[5] = biological target: FGFR3 (Homo sapiens (Human), UniProt P22607); test: as above
Sequence of FGFR3 (P22607 23-806): as the sequence (P22607 23-806 limits assumed, change not shown) above
Outline: as §2

[6] = biological target: FGFR3 (V555M) (Homo sapiens (Human), UniProt P22607, V555M); test: as above; settings: V555M mutant
Sequence of FGFR3 (V555M) (P22607 23-806 V555M): as the sequence (P22607 23-806 limits assumed, change not shown) above, with V533M counted along it
Outline: as §2

[7] = biological target: FGFR4 (Homo sapiens (Human), UniProt P22455); test: as above
Sequence of FGFR4 (P22455 22-802): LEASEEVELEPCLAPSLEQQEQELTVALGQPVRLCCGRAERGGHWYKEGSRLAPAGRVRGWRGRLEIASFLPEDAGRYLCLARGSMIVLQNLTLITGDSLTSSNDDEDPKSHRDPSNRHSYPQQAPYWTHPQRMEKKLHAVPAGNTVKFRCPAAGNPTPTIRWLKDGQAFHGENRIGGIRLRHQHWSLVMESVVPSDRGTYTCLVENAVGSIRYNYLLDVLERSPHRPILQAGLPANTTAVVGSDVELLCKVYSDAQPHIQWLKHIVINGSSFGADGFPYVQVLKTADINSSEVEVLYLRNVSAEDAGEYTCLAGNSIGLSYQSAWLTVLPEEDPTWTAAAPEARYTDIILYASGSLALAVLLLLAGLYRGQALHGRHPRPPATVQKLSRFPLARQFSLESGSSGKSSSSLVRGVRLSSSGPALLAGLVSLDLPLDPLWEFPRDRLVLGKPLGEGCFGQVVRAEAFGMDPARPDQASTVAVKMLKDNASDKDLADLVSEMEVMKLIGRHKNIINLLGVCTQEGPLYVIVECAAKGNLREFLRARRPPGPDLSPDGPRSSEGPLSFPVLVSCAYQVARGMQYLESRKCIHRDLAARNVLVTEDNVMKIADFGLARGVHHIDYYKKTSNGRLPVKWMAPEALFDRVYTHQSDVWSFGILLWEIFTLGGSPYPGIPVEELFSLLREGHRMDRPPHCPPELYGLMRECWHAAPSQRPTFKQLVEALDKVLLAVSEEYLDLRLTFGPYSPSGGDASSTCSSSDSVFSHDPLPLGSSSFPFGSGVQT
Outline: as §2

SMILES | Ba/F3 FGFR1/FGFR3 Selectivity [1] | IC50 [1] [nM] | IC50 [2] [nM] | Kd [3] [nM] | Kd [4] [nM] | Kd [5] [nM] | Kd [6] [nM] | Kd [7] [nM]
C[C@@H](Oc1ccc2[nH]nc(-c3cnn(C4CCS(=O)(=O)CC4)c3)c2c1)c1c(Cl)cncc1Cl [Example 114, 4-[4-[5-[(1R)-1-(3,5-dichloro-4-pyridyl)ethoxy]-1H-indazol-3-yl]pyrazol-1-yl]thiane 1,1-dioxide] | 12 | 20 to 100 | 100 to 300 | 1 to 20 | 1 to 20 | 1 to 20 | 1 to 20 | 20 to 100
Cc1ncc(Cl)c([C@@H](C)Oc2ccc3[nH]nc(-c4cnn(C5CCS(=O)(=O)CC5)c4)c3c2)c1Cl [Example 116, 4-[4-[5-[(1R)-1-(3,5-dichloro-2-methyl-4-pyridyl)ethoxy]-1H-indazol-3-yl]pyrazol-1-yl]thiane 1,1-dioxide] | 12 | 1 to 20 | 100 to 300 | 20 to 100 | 20 to 100 | 1 to 20 | 1 to 20 | 20 to 100
CCS(=O)(=O)N1CC2(CN(c3ncc(-c4n[nH]c5ccc(O[C@H](C)c6c(Cl)cncc6Cl)cc45)cn3)C2)C1 [Example 128, 5-[(1R)-1-(3,5-dichloro-4-pyridyl)ethoxy]-3-[2-(2-ethylsulfonyl-2,6-diazaspiro[3.3]heptan-6-yl)pyrimidin-5-yl]-1H-indazole] | 8 | 20 to 100 | > 300 | 20 to 100 | 20 to 100 | 1 to 20 | 1 to 20 | 1 to 20
C[C@@H](Oc1ccc2[nH]nc(-c3cnc(N4CC5(CCCS(=O)(=O)C5)C4)nc3)c2c1)c1c(Cl)cncc1Cl [Example 129, 2-[5-[5-[(1R)-1-(3,5-dichloro-4-pyridyl)ethoxy]-1H-indazol-3-yl]pyrimidin-2-yl]-6λ^6-thia-2-azaspiro[3.5]nonane 6,6-dioxide] | 6 | 20 to 100 | 100 to 300 | 20 to 100 | 20 to 100 | 1 to 20 | 1 to 20 | 1 to 20
CCOC(=O)N1CCC2(CC1)CN(c1ccc(-c3n[nH]c4ccc(O[C@H](C)c5c(Cl)cncc5Cl)cc34)cn1)C2 [Example 130, ethyl 2-[5-[5-[(1R)-1-(3,5-dichloro-4-pyridyl)ethoxy]-1H-indazol-3-yl]-2-pyridyl]-2,7-diazaspiro[3.5]nonane-7-carboxylate] | 12 | 20 to 100 | > 300 | 20 to 100 | 20 to 100 | 1 to 20 | 1 to 20 | 1 to 20
CCOC(=O)N1CCCC2(C1)CN(c1ncc(-c3n[nH]c4ccc(O[C@H](C)c5c(Cl)cncc5Cl)cc34)cn1)C2 [Example 131, ethyl 2-[5-[5-[(1R)-1-(3,5-dichloro-4-pyridyl)ethoxy]-1H-indazol-3-yl]pyrimidin-2-yl]-2,8-diazaspiro[3.5]nonane-8-carboxylate] | 5 | 100 to 300 | > 300 | 100 to 300 | 100 to 300 | 1 to 20 | 1 to 20 | 1 to 20
CC(C)OC(=O)N1CCCC2(C1)CN(c1ncc(-c3n[nH]c4ccc(O[C@H](C)c5c(Cl)cncc5Cl)cc34)cn1)C2 [Example 135, isopropyl 2-[5-[5-[(1R)-1-(3,5-dichloro-4-pyridyl)ethoxy]-1H-indazol-3-yl]pyrimidin-2-yl]-2,8-diazaspiro[3.5]nonane-8-carboxylate] | 9 | 100 to 300 | > 300 | > 300 | > 300 | 20 to 100 | 1 to 20 | 1 to 20
COC(=O)N1CCC2(CC1)CN(c1ncc(-c3n[nH]c4ccc(O[C@H](C)c5c(Cl)cncc5Cl)cc34)cn1)C2 [Example 136, methyl 2-[5-[5-[(1R)-1-(3,5-dichloro-4-pyridyl)ethoxy]-1H-indazol-3-yl]pyrimidin-2-yl]-2,7-diazaspiro[3.5]nonane-7-carboxylate] | 6 | 20 to 100 | > 300 | 20 to 100 | 1 to 20 | 1 to 20 | 1 to 20 | 1 to 20
C[C@@H](Oc1ccc2[nH]nc(-c3cnc(N4CC5(CCN(S(C)(=O)=O)CC5)C4)nc3)c2c1)c1c(Cl)cncc1Cl [Example 137, 5-[(1R)-1-(3,5-dichloro-4-pyridyl)ethoxy]-3-[2-(7-methylsulfonyl-2,7-diazaspiro[3.5]nonan-2-yl)pyrimidin-5-yl]-1H-indazole] | 11 | 1 to 20 | 100 to 300 | 20 to 100 | 20 to 100 | 1 to 20 | 1 to 20 | 1 to 20
COC(=O)N1CCCC2(C1)CN(c1ncc(-c3n[nH]c4ccc(O[C@H](C)c5c(Cl)cncc5Cl)cc34)cn1)C2 [Example 138, methyl 2-[5-[5-[(1R)-1-(3,5-dichloro-4-pyridyl)ethoxy]-1H-indazol-3-yl]pyrimidin-2-yl]-2,8-diazaspiro[3.5]nonane-8-carboxylate] | 8 | 20 to 100 | > 300 | 20 to 100 | 20 to 100 | 1 to 20 | 1 to 20 | 1 to 20
Cc1cncc(C)c1[C@H](C)Oc1ccc2[nH]nc(-c3ccc(N4CC5(C4)CN(S(C)(=O)=O)C5)nc3)c2c1 [Example 140, 5-[(1S)-1-(3,5-dimethyl-4-pyridyl)ethoxy]-3-[6-(2-methylsulfonyl-2,6-diazaspiro[3.3]heptan-6-yl)-3-pyridyl]-1H-indazole] | 19 | 100 to 300 | > 300 | > 300 | > 300 | 20 to 100 | 1 to 20 | > 300
Cc1cnnc(C)c1[C@@H](C)Oc1ccc2[nH]nc(-c3cnc(N4CC5(CCS(=O)(=O)C5)C4)nc3)c2c1 [Example 141, 2-[5-[5-[(1R)-1-(3,5-dimethylpyridazin-4-yl)ethoxy]-1H-indazol-3-yl]pyrimidin-2-yl]-6λ^6-thia-2-azaspiro[3.4]octane 6,6-dioxide] | 3 | > 300 | > 300 | 20 to 100 | 20 to 100 | 1 to 20 | 1 to 20 | 1 to 20
COC(=O)N1CC2(C1)CN(c1ncc(-c3n[nH]c4ccc(O[C@H](C)c5c(C)cnnc5C)cc34)cn1)C2 [Example 143, methyl 6-[5-[5-[(1R)-1-(3,5-dimethylpyridazin-4-yl)ethoxy]-1H-indazol-3-yl]pyrimidin-2-yl]-2,6-diazaspiro[3.3]heptane-2-carboxylate] | 14 | 100 to 300 | > 300 | 100 to 300 | 20 to 100 | 1 to 20 | 1 to 20 | 1 to 20
Cc1cnnc(C)c1[C@@H](C)Oc1ccc2[nH]nc(-c3ccc(N4CC5(CCS(=O)(=O)C5)C4)nc3)c2c1 [Example 144, 2-[5-[5-[(1R)-1-(3,5-dimethylpyridazin-4-yl)ethoxy]-1H-indazol-3-yl]-2-pyridyl]-6λ^6-thia-2-azaspiro[3.4]octane 6,6-dioxide] | 33 | 20 to 100 | > 300 | 1 to 20 | 1 to 20 | 1 to 20 | 1 to 20 | 1 to 20
Cc1cnnc(C)c1[C@H](C)Oc1ccc2[nH]nc(-c3ccc(N4CC5(CCS(=O)(=O)C5)C4)nc3)c2c1 [Example 145, 2-[5-[5-[(1S)-1-(3,5-dimethylpyridazin-4-yl)ethoxy]-1H-indazol-3-yl]-2-pyridyl]-6λ^6-thia-2-azaspiro[3.4]octane 6,6-dioxide] | 2 | > 300 | > 300 | > 300 | 20 to 100 | 20 to 100 | 1 to 20 | 100 to 300
CCOC(=O)N1CC2(C1)CN(c1ncc(-c3n[nH]c4ccc(O[C@H](C)c5c(C)cnnc5C)cc34)cn1)C2 [Example 146, ethyl 6-[5-[5-[(1R)-1-(3,5-dimethylpyridazin-4-yl)ethoxy]-1H-indazol-3-yl]pyrimidin-2-yl]-2,6-diazaspiro[3.3]heptane-2-carboxylate] | 15 | 100 to 300 | > 300 | 100 to 300 | 20 to 100 | 1 to 20 | 1 to 20 | 1 to 20
Cc1cnnc(C)c1[C@@H](C)Oc1ccc2[nH]nc(-c3ccc(N4CC5(C4)CN(S(C)(=O)=O)C5)nc3)c2c1 [Example 148, 5-[(1R)-1-(3,5-dimethylpyridazin-4-yl)ethoxy]-3-[6-(2-methylsulfonyl-2,6-diazaspiro[3.3]heptan-6-yl)-3-pyridyl]-1H-indazole] | 16 | 20 to 100 | > 300 | 1 to 20 | 1 to 20 | 1 to 20 | 1 to 20 | 1 to 20
